# Measurements as given in patent publication US20230149561A1, “Functionalized Nanoparticles and Their Use in Treating Bacterial Infections” (The Board of Trustees of the Leland Stanford Junior …, priority 2019, published 2023).
# Assays:
# [1] = system: Klebsiella pneumoniae CDC 0044; assay: MIC and MBC against Meropenem-resistant Klebsiella; assay type: cell-based; settings: Meropenem-resistant strain, before combination
# [2] = system: P. aeruginosa wild-type PA01 biofilm; assay: MBEC Assay biofilm eradication, 48 h old PA01 biofilm; assay type: cell-based, Pseudomonas aeruginosa; settings: 24 h treatment
# Procedure: (§1) (1-2) Bacteria culture is prepared and dispensed into a 96-well microplate. (3) The peg lid is placed in the bacteria culture and incubated to generate the biofilm. (4) The peg lid is gently rinsed to removed planktonic bacteria and a serial diluted test solution is dispensed into a new 96-well microplate. (5) The pegs covered in biofilm are incubated in the test solutions. (6) The peg lid is again gently rinsed to remove planktonic bacteria and placed in a new 96-well microplate containing recovery media. The peg lid is then sonicated to dislodge the biofilm into the recovery media. (7) Following sonication, the peg lid is replaced with a regular 96-well microplate lid and the plate containing recovery media is incubated. Following incubation, the OD650 absorbance is read on a spectrophotometer. Wells with an OD650 of less than 0.1 is evidence of biofilm eradication. (8) Spot plated on LB agar plates is use to confirm biofilm eradication.
# (§2) Then, the minimum biofilm eradication concentration (MBEC) of FLOXIN®Otic against 48 h old PA01 and PA CSOM biofilms were determined using the commercially available MBEC Assay® (Innovotech Inc. Edmonton, Canada). […] Although PA CSOM produced quantitatively less biofilms than PAO1, it had the highest tolerance to ofloxacin. […]
# PA01 logarithmic culture = assay: Persistence assay, PA01; assay type: cell-based, Pseudomonas aeruginosa; settings: ofloxacin 100 μg/mL, 24 h
# Procedure: (§3) FIGS. 2A-2B: Increasing the fraction of persister cells promotes biofilm tolerance to ofloxacin. FIG. 2A) Susceptibility of surviving persister cells in logarithmic-phase culture. […] Data are presented as mean±s.d. (n=3). FIG. 2B) Comparison of persister cell fraction between PAO1 and PA CSOM in logarithmic-phase culture. Cells of logarithmic-phase were treated with ofloxacin ([…]) for 24 h and then plated for colony counting. The persister fraction was calculated as the ratio between the number of surviving bacteria after ofloxacin treatment compared to that measured in the corresponding untreated control (PBS). Data are presented as mean±s.d. (n=3). Statistical comparisons were done using a two-tailed t-test as indicated. ****p≤0.0001 and **p≤0.01.
# (§4) PA01 and PA CSOM cultures were incubated at 37° C. with shaking. 1 mL of culture from each strain was aliquoted when reaching an OD600 of 0.3. Cultures were gently rinsed to remove LB medium and replaced with 1 mL of PBS. Ofloxacin (100 μg/mL) was added to the culture flasks (except for the control flasks). After 24 h incubation, ofloxacin was removed and the number of colony-forming units per milliliter (CFU/mL) was determined. […] The fraction of persister cells was calculated as the ratio of the CFU/mL after ofloxacin treatment to the CFU/mL of the control flasks.
# [3] = system: PA CSOM logarithmic culture; assay: Persistence assay, PA CSOM; assay type: cell-based, Pseudomonas aeruginosa; settings: ofloxacin 100 μg/mL, 24 h
# Procedure: as §3, §4
# [4] = system: PA CSOM surviving persister cells, logarithmic-phase culture; assay: Ofloxacin sensitivity of resuscitated persister cells in logarithmic-phase culture; assay type: cell-based, Pseudomonas aeruginosa; settings: ofloxacin 100 μg/mL, 24 h
# Procedure: FIG. 8: Cartoon depicting the flowchart to evaluate ofloxacin sensitivity to persister cells resuscitation in logarithmic-phase culture. (1) Surviving persister cells following the treatment of PA CSOM biofilm with ofloxacin at 3000 μg/mL were replaced in fresh media and incubated at 37° C. and were aerated at 225 r.p.m. (2) Cells in logarithmic-phase (OD600=0.3) were treated with either phosphate-buffered saline (PBS) or ofloxacin (100 μg/mL) for 24 h. (3) following the treatment, cells were plated to determine the number of bacteria per milliliter (CFU/mL).
# The drug-refractory state associated with PA CSOM biofilm formation is mediated by tolerance rather than resistance to the antibiotic.
# PA CSOM = assay: Minimum inhibitory concentration against PA CSOM; assay type: cell-based; settings: Pseudomonas aeruginosa
# [5] = system: PA01 (chromosomally encoded luminescent) biofilm; assay type: cell-based, Pseudomonas aeruginosa; settings: 10-day-old PA01 biofilm, 24 hr treatment
# Procedure: Biofilms of PA01 (10-day-old) were grown in the commercially available Calgary Biofilm Device (a 96-well plate)/minimum biofilm eradication concentration (MBEC) assay plate (46). […] Wells were washed with PBS and biofilms were disrupted with sonication and incubated in recovery media for turbidity measurements. A well was considered to have biofilm eradicated if the optical density at 650 nm (OD650) was less than 0.1 after 24 hours.
# [6] = system: P. aeruginosa clinical otopathogenic strain (PA CSOM) biofilm; assay: MBEC Assay biofilm eradication, 48 h old PA CSOM biofilm; assay type: cell-based, Pseudomonas aeruginosa; settings: 24 h treatment
# Procedure: as §1, §2
# PA01 = assay: Minimum inhibitory concentration against PA01; assay type: cell-based; settings: Pseudomonas aeruginosa
# [7] = system: stationary phase planktonic PA; assay: Killing of stationary phase planktonic PA; assay type: cell-based, Pseudomonas aeruginosa; settings: 24 hr treatment, AuNC@CPP (16000 μg/mL), OFL (750 μg/mL)
# biofilm = assay: Biofilm eradication by cell-penetrating peptide alone; assay type: cell-based; settings: CPP alone, spot plated on LB agar
# Description: FIG. 20: Cell-penetrating peptide alone cannot eradicate the biofilm; the entire entity of AuNCs was required for biofilm eradication. […] Each spot represents an independent experiment (n=3).
molecule,measurement,setting,value
C[C@@H](O)[C@H]1C(=O)N2C(C(=O)O)=C(S[C@@H]3CN[C@H](C(=O)N(C)C)C3)[C@H](C)[C@H]12 [Meropenem],MBC,[1],> 200 µg/mL
CC1COc2c(N3CCN(C)CC3)c(F)cc3c(=O)c(C(=O)O)cn1c23 (centres unmarked) [ofloxacin],minimum biofilm eradication concentration (MBEC),[2],750 µg/mL
same,fraction of persister cells of total bacteria population,PA01 logarithmic culture,0.0005%
same,fraction of persister cells,[3],0.07%
same,decrease in number of bacteria per milliliter (CFU/mL),[4],3 log 10
same,MIC,PA CSOM,52.5 to 100 µg/mL
same,MBEC,[5],750 µg/mL
same,minimum biofilm eradication concentration (MBEC),[6],> 3000 µg/mL
same,MIC,PA01,1.6 to 3.3 µg/mL
same,remaining CFU,[7],10^3
"Ac-(YGRKKRRQRRR SEQ ID NO:7)-(β-Ala)-(β-Ala)-(β-Ala)-Cys-CONH2 (N-acetyl, three beta-Ala, Cys amide; TAT cell-penetrating peptide) [CPP, cell-penetrating peptide alone, component of AuNC@CPP]",concentration without any biofilm eradication,biofilm,> 4000 µg/mL
